Measurements as given in a melting point compilation (Tetko et al.).

Structure (SMILES) | melting point
CCOC(CNC(=O)C(N)=O)OCC | 138 to 140 °C
c1cncc(C2CCCCN2)c1 (stereo not drawn) | 9 °C
O=c1oc2c(O)c(O)cc3c(=O)oc4c(O)c(O)cc1c4c23 | 450 °C
CC(=O)SC1CC2=CC(=O)CC(SC(C)=O)C2(C)C2CCC3(C)C(CCC3(C)O)C12 (stereo not drawn) | 206 °C
CC1OC(O)C(O)C(O)C1O (stereo not drawn) | 144 to 145 °C
S=c1sc2ccccc2n1CSc1nc2ccccc2s1 | 211 °C
COc1ccc(C2(C)CCc3oc4ccc(Cl)cc4c3-c3oc(C)cc32)cc1 (stereo not drawn) | 144 °C
COC(=O)[C@@H](CC(=O)O)C1CCCCC1 | 47.9 °C
O=C(c1ccco1)c1nn2c(nc(=O)c3ccccc32)s1 | 325 °C
Cc1ccc(C(=O)O)c(C)c1 | 125 °C
O=[N+]([O-])c1cc(C(F)(F)F)c(Cl)c([N+](=O)[O-])c1Nc1ncc(C(F)(F)F)cc1Cl | 117 °C
CC(NC(=O)c1ccccc1)C(=O)O (racemic) | 166 °C
c1ccc2c(c1)NC1(CCCCC1)O2 | 243 °C
COP(=S)(Oc1cc(Cl)c(Br)cc1Cl)c1ccccc1 (stereo not drawn) | 70.4 °C
NC(CP(=O)(O)O)C(=O)O (stereo not drawn) | 227 to 229 °C
CC(Cc1oc2c(c3c(c4ccccc42)O[C@@H]2CC(=O)O[C@H]32)c(=O)c1[Si](C)(C)C)O[Si](C)(C)C(C)(C)C (stereo partly drawn) | 188 to 190 °C
CCOC(=O)/C(C#N)=C/c1ccc(-c2ccc(Cl)cc2)o1 | 140 °C
CCCCCCCCCCCCCCCCCC(=O)OCCOCCOCCOCCO | 40 °C
CC12CCC3C(C(=O)CC4CC(O)CCC43C)C1CCC2O (stereo not drawn) | 198 °C
CNc1nnc(S)s1 | 190 to 193 °C

Structure (SMILES) | melting point
O=C(c1ccccc1)c1cccnc1 | 38 °C
CCOP(=O)(O)C(N)=O | 174 °C
Fc1cc(I)ccc1Br | 36 to 41 °C
CN1CCN(c2cccc(N)c2)CC1 | 98 to 99 °C
Cc1ccc(Oc2ccc([N+](=O)[O-])cc2)cc1 | 69 °C
O=C(O)CS(=O)(=O)CC(=O)O | 182 °C
N#Cc1cccc(CBr)c1 | 94 °C
CSC(=NS(=O)(=O)c1ccc(C)cc1)SC | 109 to 110 °C
CCN(CC)C(=O)C1C=C2c3cccc4[nH]c(Br)c(c34)CC2N(C)C1 (stereo not drawn) | 124 °C
Cc1cc(Br)c(O)c2c1CCC2 | 60 to 62 °C
CCOC1Oc2ccc(OS(C)(=O)=O)cc2C1(C)C (stereo not drawn) | 71 °C
NNC(=O)c1csc(-c2ccccc2)n1 | 137 to 138 °C
Cc1cncc(Cl)n1 | 48 to 52 °C
C=C(C)CC(C)=O | -72.6 °C
CCCC(=O)c1cc2ccccc2oc1=O | 93 to 94 °C
CCOC(OCC)c1cccc2c(Br)ccc([N+](=O)[O-])c12 | 95 °C
CSC(=O)c1c(C(F)F)nc(C(F)(F)F)c(C(=O)SC)c1CC(C)C | 65 °C
O=C(C=Cc1ccsc1)c1ccccc1 | 88 °C
CC(=O)Oc1c(-c2ccccc2)[nH]c2cc(N)c(/C=C/c3ccccc3)cc12 | 266 °C
CC[C@H](C)[C@@H](N)C(=O)O | 285 °C

Structure (SMILES) | melting point
CC(N)(Cc1ccc(O)cc1)C(=O)O (stereo not drawn) | 312 °C
O=C(O)c1ccc(O)c(O)c1O | 221 °C
Cc1cc(C(=O)O)cc(C)c1F | 166 °C
O=C(O)CSc1ccc(F)cc1 | 78 °C
CNc1ccc(NC)c2c1C(=O)c1ccccc1C2=O | 220 °C
CC(C)(O)C(Cl)(Cl)Cl | 97 °C
COCCOC | -58 °C
Cc1cc(F)ccc1CC#N | 26 °C
NS(=O)(=O)c1ccc(N=C=S)cc1 | 210 to 212 °C
CCOC(=O)c1cc2cc(Br)ccc2o1 | 69 to 72 °C
CCOC(=O)c1[nH]c(C)cc1C | 125 to 126 °C
CCCC(C)CC (stereo not drawn) | -119 °C
Cc1c(O)ncnc1Cl | 202 °C
N#CC#N | -27.9 °C
N#Cc1ccc(C(Cl)C(Cl)c2cccc(C(Cl)C(Cl)c3ccc(C#N)cc3[N+](=O)[O-])c2)c([N+](=O)[O-])c1 (stereo not drawn) | 248 °C
COP(=S)(OC)SCC(=O)N(c1ccc(Cl)cc1)C(C)C | 51 °C
CC=C1CCC2C3CC=C4CC(OC(C)=O)CCC4(C)C3CCC12C (stereo not drawn) | 137 °C
COC(=O)CC1Sc2ccccc2NC1=O (stereo not drawn) | 143 °C
c1ccc(N2CCN(c3ccccc3)CC2)cc1 | 165 °C
COc1cc2c(cc1OC)C1CC(=O)C(CC(C)C)CN1CC2 (stereo not drawn) | 128 °C

More lines, now with the values ahead:

melting point | Structure (SMILES)
128 °C | O=C1c2ccccc2CC2c3ccccc3C=CN12 (stereo not drawn)
45 °C | Clc1cccc2ncccc12
87 °C | CC=Cc1ccc(OCC)c(O)c1
52.5 to 53 °C | COc1ccc(/C(C)=C/C(C)=O)cc1
198 to 200 °C | C/C=C/C=C(C)/C=N/Nc1ccc([N+](=O)[O-])cc1[N+](=O)[O-]
72 °C | Cc1ccccc1NCCNc1ccccc1C
-40 °C | CC(=O)OCCN(CCOC(C)=O)CCOC(C)=O
-32.4 °C | CCCCOC(=O)CCCCC(=O)OCCCC
297 to 305 °C | CCOC(=O)c1cnc2ccc(OC(F)(F)F)cc2c1O
222 to 223 °C | O=C(C(=S)Nc1ccc(Cl)cc1)c1ccccc1
80 to 82 °C | Cc1cc(Oc2ncccc2[N+](=O)[O-])cc(C)c1Cl
205 °C | CNc1ccc2cc3ccc4c(c3nc2c1CO)COCN4S(C)(=O)=O
210 °C | CN(C)c1ccc(C=Cc2nc3ccccc3s2)cc1
279 °C | Cn1c(=O)c(C2=NNC(=O)C2=C2C(=O)Nc3ccccc32)c(O)c2ccccc21
178 °C | CCCCOc1c(-c2nnc(-c3ccc(Cl)cc3)o2)sc(-c2nnc(-c3ccc(Cl)cc3)o2)c1OCCCC
38 °C | CC(C)(C)C(=O)CC(=O)C(F)(F)C(F)(F)C(F)(F)F
252 °C | CC(=O)Nc1ccccc1/C=C/c1cc(C)c([N+](=O)[O-])cc1[N+](=O)[O-]
178 to 179 °C | CCCc1ccc(NC(C)=O)cc1O
156 to 157 °C | CC1(c2ccccc2)CC(C(=O)c2cc3ccccc3o2)C1 (stereo not drawn)
78 °C | Cc1ccc(C)c(CCC(C)(C)C(=O)O)c1
285 °C | O=C(Nc1cccc(N=Nc2cccc(NC(=O)c3ccccc3)c2)c1)c1ccccc1
33 °C | CCCCCCC(=O)CCCCCC
65 to 68 °C | CC1=C(C)C([Si](C)(C)C2C(C)=C(C)C(C)=C2C)C(C)=C1C

melting point | Structure (SMILES)
165 °C | Brc1ccc2cc(Br)ccc2c1
190 °C | CC1OC(n2cc(F)c(=O)[nH]c2=O)C(O)C1O (stereo not drawn)
141 °C | CC12CCC(C(C(Br)c3ccccc3)OC1=O)C2(C)C (stereo not drawn)
229 to 232 °C | S=c1[nH]c2ccc(Cl)cc2o1
130 °C | O=[N+]([O-])c1cc(-c2ncco2)cc([N+](=O)[O-])c1
222 °C | CC1=CCC/C1=N\Nc1ccc([N+](=O)[O-])cc1[N+](=O)[O-]
173 °C | c1ccc(C2Nc3ccccc3C2c2ccccc2)cc1 (stereo not drawn)
115 °C | O=C(Nc1nc(-c2ccc(Br)cc2)cs1)c1ccccc1
335 to 337 °C | Oc1nnc(C2c3ccccc3Oc3ccccc32)o1
114 to 117 °C | CC(C)(C)C(CCC(=O)O)CC(=O)O (stereo not drawn)
79 °C | CSCS(=O)(=O)c1ccc(C)cc1
182 °C | CC1(C)OC(=O)C(=Cc2ccc(-c3ccc(Br)cc3)o2)C(=O)O1
141 °C | NC(=O)c1ccc(Cl)c(Cl)c1
213 °C | O=C(C1=NOC2C(=O)N(c3ccc(O)cc3)C(=O)C12)c1ccc([N+](=O)[O-])cc1 (stereo not drawn)
38 °C | CN(C)c1ccc(N=C=O)cc1
-16 °C | CCCCCC(O)CC (racemic)
213 °C | Nc1ccc2cc(N)ccc2c1
82 °C | COc1cc2c(cc1OC)C(C#N)C2 (stereo not drawn)
189 °C | CCCOC(=O)C1=C(C)NC(=O)NC1c1ccccc1O (stereo not drawn)
93 °C | COc1cc(C)cc2c1C(=O)C2
50 to 53 °C | C[Si](C)(C)CCS(=O)(=O)c1ccccc1
93 to 95 °C | O=Cc1cccc(N2CCOCC2)n1
120 °C | CN(C)CCC(O)(c1ccccc1)c1ccccc1Cl (stereo not drawn)

melting point | Structure (SMILES)
30 to 32 °C | C#CC(C)(C)Oc1ccc(C#N)cc1
-90 °C | C=C(C)CCCCC
203 to 205 °C | O=C(O)c1ccc(=O)oc1
78 to 81 °C | Cc1onc(-c2c(F)cccc2Cl)c1C#N
103 to 105 °C | O=Cc1ccc(N2CCCC2)c([N+](=O)[O-])c1
64 °C | COc1cccc(Br)c1O
212 to 216 °C | CC(=O)Nc1cc(F)ccc1C(=O)O
200 °C | CCOC(=O)c1nn(-c2ccc(C)cc2)c(C)c1C(=O)C1=NOC2C(=O)N(c3ccccc3C)C(=O)C12 (stereo not drawn)
115 °C | N#CC1(c2ccccc2)CCC(=O)CC1
206 °C | N[C@@H](CSCC(=O)O)C(=O)O
43 °C | CC(C)(C)C(=O)C=Cc1ccccc1
97 to 99 °C | O=C(O)CCCCCCCCCCCCCCO
59 °C | CCCCCCCCCCCCCCCC(=O)c1ccccc1
106 °C | Cc1ccccc1NN=C1C(=O)OC(C)(C)OC1=O
83.5 °C | ONc1ccccc1
137 to 142 °C | Cc1nc(C(F)(F)F)ccc1C(=O)O
300 °C | O=C1NC(=O)c2c(Cl)c(Cl)c(Cl)c(Cl)c21
231 °C | O=C(c1ccc(F)cc1)C1CCN(CCn2c(=O)[nH]c3ccccc3c2=O)CC1
136 to 141 °C | O[C@H](C1CCCCC1)[C@H](O)C1CCCCC1
177 to 181 °C | NC(=S)Nc1ccc(Cl)cc1
88 °C | O=C1c2ccccc2C(=O)C1(CN1CCOCC1)c1ccccc1
98 to 102 °C | COC1C(C(O)CO)OC2OC3(CCCCC3)OC21 (stereo not drawn)
